Laboratory results as given in patent US20220009915A1, “CHEMICAL PROBES AND METHODS OF USE THEREOF” (City University of Hong Kong, priority 2020, published 2022).

How the values were obtained:
Type in all cases: biochemical
HDAC8 [1] = molecular target: T1, HDAC8 (Homo sapiens, UniProt Q9BY41); assay: HPLC analysis of the enzymatic reaction of KTlip with HDAC8; details: KTlip 40 μM, HDAC8 80 ng/μl, 20 mM HEPES pH 8.0, 2 hours reaction
T1 sequence (Q9BY41 1-377): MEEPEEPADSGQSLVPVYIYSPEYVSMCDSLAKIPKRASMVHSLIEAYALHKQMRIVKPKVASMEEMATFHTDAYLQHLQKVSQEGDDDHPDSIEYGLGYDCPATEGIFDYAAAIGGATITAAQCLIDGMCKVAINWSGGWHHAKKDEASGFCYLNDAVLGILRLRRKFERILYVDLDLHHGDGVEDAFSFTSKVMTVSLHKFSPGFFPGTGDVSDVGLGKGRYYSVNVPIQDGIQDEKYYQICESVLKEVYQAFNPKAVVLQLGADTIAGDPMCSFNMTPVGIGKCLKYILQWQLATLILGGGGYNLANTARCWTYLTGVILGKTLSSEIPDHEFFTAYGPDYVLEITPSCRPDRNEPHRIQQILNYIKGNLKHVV
Procedure: FIG. 6 depicts HPLC analysis of the enzymatic reaction of KTlip (40 μM) with HDAC8 (80 ng/μl) in the reaction buffer (20 mM HEPES buffer at pH 8.0, 150 mM NaCl, 1 mM MgCl2 and 2.7 mM KCl).
(§1) The probe KTlip following was first synthesized. The capacity of HDACs to recognize and remove the lipoyl group of KTlip was then examined by a fluorimeter assay. Briefly, KTlip was incubated with various HDACs at 37° C. in HEPES buffer (pH 8.0). The fluorescence of the enzymatic reactions was then measured accordingly. […] Further HPLC and MS analysis confirmed that the molecular weight of the newly generated peak corresponded to the expected tandem delipoylated/exchanged product (FIG. 4A,B). […] After enzymatic reaction with Sirt2, a shift of peak absorption from 380 nm to 480 nm was clearly observed. (FIG. 4C). Through detailed kinetic study, the first-order rate constant of the reaction was determined to be 0.013 min−1. The Km value of KTlip obtained from the fluorescent method matched well with that from the traditional HPLC method (FIG. 5), underscoring that probe KTlip can serve as a useful tool for detecting enzymatic delipoylation activity.

Sirt2 = molecular target: T2, Sirt2 (Homo sapiens, UniProt Q8IXJ6); assay: Fluorimeter delipoylation assay of probe KTlip with Sirt2
T2 construct: made in house
T2 sequence (Q8IXJ6 1-389): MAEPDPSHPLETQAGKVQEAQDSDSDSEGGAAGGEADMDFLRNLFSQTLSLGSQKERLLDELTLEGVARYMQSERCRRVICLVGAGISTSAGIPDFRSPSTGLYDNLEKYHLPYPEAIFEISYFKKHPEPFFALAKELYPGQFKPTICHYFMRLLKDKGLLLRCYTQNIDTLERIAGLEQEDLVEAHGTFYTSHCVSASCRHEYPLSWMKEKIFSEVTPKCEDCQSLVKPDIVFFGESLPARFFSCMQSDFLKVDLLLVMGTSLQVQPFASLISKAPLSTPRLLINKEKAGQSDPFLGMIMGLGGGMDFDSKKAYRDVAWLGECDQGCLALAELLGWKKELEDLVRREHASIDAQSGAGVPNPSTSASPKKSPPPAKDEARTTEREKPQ
Procedure: as §1, with “The Km value of KTlip obtained from the fluorescent method matched well with that from the traditional HPLC method (FIG. 5), underscoring that probe KTlip can serve as a useful tool for detecting enzymatic delipoylation activity.” left out
(§2) The probe KTlip was incubated with sirtuin and NAD+ at 37° C. in 20 mM HEPES buffer (pH 8.0) containing 150 mM NaCl, 1 mM MgCl2, and 2.7 mM KCl. […] When the enzymatic reaction was complete, the reaction was applied for absorption and fluorescence measurement. The parameter set for absorbance measurement was as follows: UV-visible light, collection region: 300-550 nm. The parameter set for fluorescence measurements was as follows: λex=480 nm, slit width: 5 nm, collection region: 510-600 nm.

HDAC8 [2] = molecular target: T1, HDAC8; assay: Fluorimeter delipoylation assay of probe KTlip with HDAC8; details: KTlip incubated with HDAC8 at 37° C. in HEPES buffer (pH 8.0)
Procedure: as §1, with “The Km value of KTlip obtained from the fluorescent method matched well with that from the traditional HPLC method (FIG. 5), underscoring that probe KTlip can serve as a useful tool for detecting enzymatic delipoylation activity.” left out
as §2

Sirt5 = molecular target: T3, Sirt5 (Homo sapiens, UniProt Q9NXA8); assay: Fluorimeter delipoylation assay of probe KTlip with Sirt5; details: KTlip incubated with Sirt5 at 37° C. in HEPES buffer (pH 8.0)
T3 construct: made in house
T3 sequence (Q9NXA8 37-310): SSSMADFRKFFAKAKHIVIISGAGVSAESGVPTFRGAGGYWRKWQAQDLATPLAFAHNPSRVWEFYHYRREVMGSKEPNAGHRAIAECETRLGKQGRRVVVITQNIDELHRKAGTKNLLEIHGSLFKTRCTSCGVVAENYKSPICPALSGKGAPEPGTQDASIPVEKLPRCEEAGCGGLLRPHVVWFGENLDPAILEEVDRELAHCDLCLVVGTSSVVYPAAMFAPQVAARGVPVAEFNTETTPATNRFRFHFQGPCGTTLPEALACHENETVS
Procedure: as §1, with “The Km value of KTlip obtained from the fluorescent method matched well with that from the traditional HPLC method (FIG. 5), underscoring that probe KTlip can serve as a useful tool for detecting enzymatic delipoylation activity.” left out
as §2

Sirt3 = molecular target: T4, Sirt3 (Homo sapiens, UniProt Q9NTG7); assay: Fluorimeter delipoylation assay of probe KTlip with Sirt3; details: KTlip incubated with Sirt3 at 37° C. in HEPES buffer (pH 8.0)
T4 construct: made in house
T4 sequence (Q9NTG7 1-399): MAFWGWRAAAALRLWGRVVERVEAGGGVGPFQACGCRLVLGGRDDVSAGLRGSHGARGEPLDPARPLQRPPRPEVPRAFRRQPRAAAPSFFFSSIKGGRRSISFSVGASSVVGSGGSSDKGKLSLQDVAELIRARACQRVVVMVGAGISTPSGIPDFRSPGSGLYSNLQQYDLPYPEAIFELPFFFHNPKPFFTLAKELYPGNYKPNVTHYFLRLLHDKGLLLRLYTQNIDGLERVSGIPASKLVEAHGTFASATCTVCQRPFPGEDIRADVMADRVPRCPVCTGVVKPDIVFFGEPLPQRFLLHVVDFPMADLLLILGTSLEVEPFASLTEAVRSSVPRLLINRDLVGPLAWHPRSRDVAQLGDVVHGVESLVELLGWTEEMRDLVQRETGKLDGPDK
Procedure: as §1, with “The Km value of KTlip obtained from the fluorescent method matched well with that from the traditional HPLC method (FIG. 5), underscoring that probe KTlip can serve as a useful tool for detecting enzymatic delipoylation activity.” left out
as §2

Sirt1 = molecular target: T5, Sirt1 (Homo sapiens, UniProt Q96EB6); assay: Fluorimeter delipoylation assay of probe KTlip with Sirt1; details: KTlip incubated with Sirt1 at 37° C. in HEPES buffer (pH 8.0); compared with Sirt2
T5 construct: made in house
T5 sequence (Q96EB6 1-747): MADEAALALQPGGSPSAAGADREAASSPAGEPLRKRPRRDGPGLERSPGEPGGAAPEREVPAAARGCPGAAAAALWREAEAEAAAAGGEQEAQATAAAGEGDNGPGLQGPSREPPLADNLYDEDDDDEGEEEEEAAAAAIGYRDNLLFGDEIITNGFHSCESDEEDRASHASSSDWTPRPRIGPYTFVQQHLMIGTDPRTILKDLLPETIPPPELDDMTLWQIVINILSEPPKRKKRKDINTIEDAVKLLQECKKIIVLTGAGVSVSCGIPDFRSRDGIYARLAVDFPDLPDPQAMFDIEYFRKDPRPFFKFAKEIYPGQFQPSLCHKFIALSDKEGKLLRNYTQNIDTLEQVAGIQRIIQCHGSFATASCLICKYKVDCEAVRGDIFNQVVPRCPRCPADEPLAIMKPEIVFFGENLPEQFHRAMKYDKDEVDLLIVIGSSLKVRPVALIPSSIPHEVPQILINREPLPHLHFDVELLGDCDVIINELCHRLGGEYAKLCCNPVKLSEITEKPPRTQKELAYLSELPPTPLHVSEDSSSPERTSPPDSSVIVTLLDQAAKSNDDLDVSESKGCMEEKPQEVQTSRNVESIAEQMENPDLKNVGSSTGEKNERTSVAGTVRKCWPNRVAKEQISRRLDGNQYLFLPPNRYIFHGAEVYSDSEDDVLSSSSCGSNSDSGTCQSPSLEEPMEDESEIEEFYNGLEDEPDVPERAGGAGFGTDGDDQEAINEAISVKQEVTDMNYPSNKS
Procedure: as §1, with “The Km value of KTlip obtained from the fluorescent method matched well with that from the traditional HPLC method (FIG. 5), underscoring that probe KTlip can serve as a useful tool for detecting enzymatic delipoylation activity.” left out
as §2

Sirt6 = molecular target: T6, Sirt6 (Homo sapiens, UniProt Q8N6T7); assay: Fluorimeter delipoylation assay of probe KTlip with Sirt6; details: KTlip incubated with Sirt6 at 37° C. in HEPES buffer (pH 8.0)
T6 construct: made in house
T6 sequence (Q8N6T7 whole entry, species assumed): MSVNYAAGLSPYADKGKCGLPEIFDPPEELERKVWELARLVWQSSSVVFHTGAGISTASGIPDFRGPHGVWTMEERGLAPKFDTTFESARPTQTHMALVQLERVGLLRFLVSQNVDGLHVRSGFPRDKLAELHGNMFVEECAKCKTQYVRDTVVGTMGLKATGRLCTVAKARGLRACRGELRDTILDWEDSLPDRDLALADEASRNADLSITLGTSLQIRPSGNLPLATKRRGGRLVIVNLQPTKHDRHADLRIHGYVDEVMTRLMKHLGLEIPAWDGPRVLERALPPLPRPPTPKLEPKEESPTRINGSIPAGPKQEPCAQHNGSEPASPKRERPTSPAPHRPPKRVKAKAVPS
Procedure: as §1, with “The Km value of KTlip obtained from the fluorescent method matched well with that from the traditional HPLC method (FIG. 5), underscoring that probe KTlip can serve as a useful tool for detecting enzymatic delipoylation activity.” left out
as §2

delipoylated product (HPLC) (HDAC8 [1]): no delipoylated product observed | fluorescence increase (Sirt2; KTlip incubated with Sirt2 at 37° C. in HEPES buffer (pH 8.0), NAD+, λex 480 nm): 60 fold | first-order rate constant of the reaction (Sirt2; delipoylation of KTlip by Sirt2, fit of fluorescence data to 1−exp(−kt)): 0.013 min⁻¹ | fluorescence signal (Sirt1): much lower fluorescence signal
SMILES: CC(C)(C)OC(=O)N[C@@H](CCCCNC(=O)CCCCC1CCSS1)C(=O)NCCOCCOc1ccc([N+](=O)[O-])c2nonc12 (some centres unmarked) [KTlip]
fluorescence increase (HDAC8 [2]): did not show a noticeable fluorescence increase | fluorescence increase (Sirt5): did not show a noticeable fluorescence increase | fluorescence increase (Sirt3): did not show a noticeable fluorescence increase | fluorescence increase (Sirt6): did not show a noticeable fluorescence increase
